{"source": "patent US20100292200A1", "about": "“Methods for Modulating Apoptosis in Platelets” (The Walter and Eliza Hall Institute of Medical Research, priority 2006, published 2010)", "key": {"Mcl-1 null MEF cells": {"test_system": "Mcl-1 null MEF cells", "test": "Assay of Mcl-1 null MEF cells (rescue from ABT-737-induced killing, CellTitre-Blue viability)", "format": "cell-based, mouse", "conditions": "Mcl-1^(-/-) MEFs", "description": "In summary, cells are split on day one in order to have them at a confluency of 60-80% on day two. On day two, the cells are seeded out into assay plates at a density that will ensure they are not confluent by day four of the assay. The assay plates are incubated at room temperature for 20-60 minutes before being transferred to 37° C. so that edge effects are minimized. For the same reason, assay plates are never stacked on top of each other in the incubator. On day three the cells are treated first with either Q-VD or with WEHI library compound. The cells are incubated for a 2 hour period in the presence of the library compounds and are then treated with ABT-737. […] After four hours the level of resorufin is measured.\nThe protocol for day one was repeated up to the point where the cells were pelleted and the supernatant aspirated off. […] The cells were vortexed and then counted using a haemocytometer. The dilution necessary to achieve a density of 2×10^4 cells ml^−1 (1000 cells per well per 50 μl media) in the required volume was calculated and the dilution performed in 1% FCS FMA. […]\nCellTitre-Blue™ was warmed to 37° C. and 10 μl was then added to each well of the assay plates using the Multidrop. The plates were returned to 37° C. for 4 hours before being loaded into the EnVision plate reader. […]"}, "[1]": {"conditions": "mouse, in vivo; cited from earlier work"}, "platelets": {"test_system": "platelets", "test": "ABT-737 administration to mice, peripheral blood platelet counts", "format": "in vivo, mouse", "description": "Animals were bled 2-24 h afterwards and platelet counts determined. […] Platelet counts (blue symbols; left axis) were determined 2-96 h after a single dose of ABT-737 (red arrow). […] Orange symbols represent serum TPO levels (right axis). […] Platelet counts were determined before and 8 h after a single dose of ABT-737 (red arrows) given at weekly intervals. […] (E) Synchronizing platelets. […] Wild type C57BL/6 mice were treated with APS, and then injected with ABT-737 (red arrows) either 2 or 7 days afterwards. Absolute platelet counts and the % of reticulated platelets were measured. The top panels show representative flow cytometric profiles following thiazole orange staining before or after ABT-737 injections. The bottom panels show platelet counts prior to or 2 h post ABT-737 injection. Data in (B), (C), (E) and (F) represent means±SD of 3-6 mice at each time point. […]\n(§1) The hematocrit, platelet and white cell count, and differential were determined by using either manual or automated (Advia 120) counting techniques. In most experiments, with the exception of data shown in FIGS. 1A and 6E, the data was collected from male mice. Clonal cultures of 2.5×10^4 adult bone marrow cells or 5×10^4 spleen cells in 1 mL of 0.3% agar in DMEM supplemented with newborn calf serum (20%) were stimulated with a mixture of 100 ng/mL murine stem cell factor, 10 ng/mL murine IL-3, 4 units/mL human EPO and incubated for 7 days at 37° C. in a fully humidified atmosphere of 10% CO2 in air. Agar cultures were fixed, sequentially stained for acetylcholinesterase, Luxol fast blue and hematoxylin; the cellular composition of each colony determined at ×100-400 magnification. Megakaryocyte counts were performed by manual counting from sections of sternum and spleen after staining with hematoxylin/eosin. A minimum of 10 high-power fields (×200) were scored.\nMice were injected intra-peritoneally with 75 mg/kg of ABT-737 given as a single dose or daily. A stock solution of ABT-737 (1 g/mL in DMSO) was diluted in a mixture of 30% propylene glycol, 5% Tween 80, 65% D5W (5% dextrose in water), pH 4-5; the final concentration of DMSO was less than 1%."}, "[2]": {"test_system": "cells from the bone marrow of C57BL/6 mice", "test": "formation of hematopoietic progenitors in vitro (soft agar colony cultures)", "format": "cell-based, mouse", "description": "Cells (25,000) from the bone marrow of C57BL/6 mice were cultured in soft agar with G-CSF, IL-3 and EPO for 7 r d, stained and counted. Saline or ABT-737 was added on days 1, 3 and 5. […] G, granulocyte colony; GM, granulocyte/macrophage colony; M, macrophage colony; EO, eosinophil colony; Meg, megakaryocyte colony. Total colony counts are the means of two cultures; megakaryocyte colony counts represent the means±SD of four indepdendent cultures.\nas §1"}, "human platelets": {"test_system": "human platelets", "conditions": "1 μM for 1 or 2 h", "quoted_text": "Human whole blood was obtained with informed consent (approved by the Institutional Review Board), Platelet rich plasma was obtained and incubated at room temperature with drug or control for up to 2 h. Platelets were counted manually in triplicate using a hemacytometer."}, "[3]": {"conditions": "ABT-737 1 μM added on days 1, 3 and 5, 25,000 bone marrow cells, 7 d, mean of two cultures"}, "[4]": {"conditions": "progenitor cell cultures in vitro"}}, "note": "Entries after “also recorded” stand apart in the source; their conditions may differ.", "data": [{"smiles": "CN(C)CC[C@H](CSc1ccccc1)Nc1ccc(S(=O)(=O)NC(=O)c2ccc(N3CCN(Cc4ccccc4-c4ccc(Cl)cc4)CC3)cc2)cc1[N+](=O)[O-]", "note": "[ABT-737]", "values": [{"measurement": "induction of apoptosis in Mcl-1^(-/-) cells", "setting": "Mcl-1 null MEF cells", "result": "Apoptosis is induced"}, {"measurement": "tolerability in mice", "setting": "[1]", "result": "well-tolerated"}, {"measurement": "effect of ABT-737 on newly synthesized young platelets", "setting": "platelets; ABT-737 injected 2 days post-APS, counts 2 h post injection", "result": "highly resistant"}, {"measurement": "effect of ABT-737 on aged platelets", "setting": "platelets; ABT-737 injected 7 days post APS, counts 2 h post injection", "result": "susceptible"}, {"measurement": "effect of ABT-737 on platelets in Bak^-/- Bax^+/- mice", "setting": "platelets; Bak^-/- Bax^+/- mice, single dose 75 mg/kg, 0-24 h, 75 mg/kg", "result": "entirely refractory; also recorded: enthely refractory; also recorded: completely protected"}, {"measurement": "effect of ABT-737 on platelet counts in Bak^-/- mice", "setting": "platelets; Bak^-/- mice, single dose 75 mg/kg, 0-24 h, 75 mg/kg", "result": "significantly buffered; also recorded: unaffected by ABT-737 at early time points (up to 4 h)"}, {"measurement": "impact of loss of Bax alone on the effect of ABT-737", "setting": "platelets; Bax-deficient mice (data not shown)", "result": "little impact"}, {"measurement": "ABT-737-induced thrombocytopaenia in Bcl-x^+/- mice", "setting": "platelets; Bcl-x^+/- vs wild type and Bcl-2^+/- mice, single dose 75 mg/kg, 2-24 h, 75 mg/kg", "result": "exacerbates"}, {"measurement": "platelet levels during continued daily ABT-737", "setting": "platelets; daily injections continued for 14 days", "result": "60-70 % of normal"}, {"measurement": "platelet counts with weekly ABT-737", "setting": "platelets; single dose given at weekly intervals, counts before and 8 h after", "result": "acute thrombocytopaenia ensued in a cyclical manner; also recorded: comparable drop in platelets each time"}, {"measurement": "dose dependence of thrombocytopaenia", "setting": "platelets; wild type C57BL/6 mice (data not shown)", "result": "dose dependent"}, {"measurement": "platelet counts after recovery from a single dose", "setting": "platelets; wild type C57BL/6 mice, 2-96 h after a single dose", "result": "rebound thrombocytosis by day 4"}, {"measurement": "time for platelet counts to recover to normal levels", "setting": "platelets; wild type C57BL/6 mice, after a single dose", "result": "≤ 3", "unit": "days"}, {"measurement": "Blast colonies", "setting": "[2]; [3]", "result": 16}, {"measurement": "Eo, eosinophil colony", "setting": "[2]; [3]", "result": 1}, {"measurement": "G, granulocyte colony", "setting": "[2]; [3]", "result": 14}, {"measurement": "GM, granulocyte/macrophage colony", "setting": "[2]; [3]", "result": 6}, {"measurement": "M, macrophage colony", "setting": "[2]; [3]", "result": 14}, {"measurement": "Meg, megakaryocyte colony", "setting": "[2]; ABT-737 1 μM added on days 1, 3 and 5, 25,000 bone marrow cells, 7 d, means±SD of four independent cultures", "result": "14 ± 6"}, {"measurement": "effect on formation of other colonies", "setting": "[2]; [4]", "result": "unaffected"}, {"measurement": "effect on megakaryocyte colony formation", "setting": "[2]; [4]", "result": "no effect; also recorded: minor effect"}, {"measurement": "susceptibility of human platelets to ABT-737", "setting": "human platelets", "result": "caspase-dependent susceptibility"}]}]}
